Earlier results in paper PMC3848336, “Aurora Isoform Selectivity: Design and Synthesis of Imidazo[4,5-b]pyridine Derivatives as Highly Selective Inhibitors of Aurora-A Kinase in Cells” (Journal of Medicinal Chemistry, 2013).

Test system: Aurora-A/N-Myc complex
Parameters: method as in PMID 23792191
Details: cited from earlier work

SMILES	disruption of the Aurora-A/N-Myc complex
O=C(O)[C@]1(Cc2cccc(Nc3nccs3)n2)CC[C@@H](Oc2cccc(Cl)c2F)CC1 [MK-5108]	not disrupted
O=C(O)c1ccc(Nc2ncc3c(n2)-c2ccc(Cl)cc2C(c2c(F)cccc2F)=NC3)cc1 [MLN8054]	disrupt the Aurora-A/N-Myc complex
COc1cc(Nc2ncc3c(n2)-c2ccc(Cl)cc2C(c2c(F)cccc2OC)=NC3)ccc1C(=O)O [MLN8237]	disrupt the Aurora-A/N-Myc complex
